We go through 30 compounds from US6476025B1, “Phenylphennanthridines with PDE-IV inhibiting activity” (Altana Pharma AG, priority 1999, dated 2002).

The experiment relates to PDE4. Put plainly: Inhibition of PDE4 activity (method of Bauer and Schwabe, adapted to microtiter plates). It is filed as biochemical. As to conditions: inhibitory concentration as −log IC50 (mol/l). Here is the method:
The activity test was carried out according to the method of Bauer and Schwabe, which was adapted to microtiter plates (Naunyn-Schmiedeberg's Arch. Pharmacol. 1980, 311, 193-198). The PDE reaction takes place in the first step here. In a second step, the resulting 5′-nucleotide is cleaved by a 5′-nucleotidase of the snake venom of Crotalus atrox to the uncharged nucleoside. In the third step, the nucleoside is separated from the remaining charged substrate on ion-exchange columns. The columns are eluted directly into minivials, into which 2 ml of scintillator fluid are additionally added, for counting using 2 ml of 30 mM ammonium formate (pH 6.0).
The inhibitory values determined for the compounds according to the invention [inhibitory concentration as −log Ic50 (mol/l)] follow from the following Table A, in which the numbers of the compounds correspond to the numbers of the examples.
Regarding `COc1cc2c(cc1OC)[C@@H]1CCCC[C@@H]1N=C2c1ccc(C(=O)c2ccc(Cl)cc2)cc1` (relative stereo) [Compound 27, (−)-cis-8,9-Dimethoxy-6-[4-(4-chlorbenzoyl)phenyl]-1,2,3,4,4a,10b-hexahydrophenanthridine], the “−log IC50, inhibition of the PDE4 activity” value (“−log IC50, inhibition” below) was 7.3.
As for `COc1cc2c(cc1OC)[C@@H]1CCCC[C@@H]1N=C2c1ccc(C(=O)c2cccc(Cl)c2)cc1` (relative stereo) [Compound 28, (−)-cis-8,9-Dimethoxy-6-[4-(3-chlorbenzoyl)phenyl]-1,2,3,4,4a,10b-hexahydrophenanthridine], the figure is 7.61; as for `COc1cc2c(cc1OC)C1CCCCC1N=C2c1ccc(C(C)=O)cc1` (single isomer, unassigned; (-)) [Compound 2, (−)-cis-8,9-Dimethoxy-6-(4-acetophenyl)-1,2,3,4,4a,10b-hexahydrophenanthridine], 7.27; as for `COc1cc2c(cc1OC)C1CCCCC1N=C2c1ccc(OCC2CC2)c(OCC2CC2)c1` (single isomer, unassigned; (-)) [Compound 15, (−)-cis-8,9-Dimethoxy-6-[3,4-bis-(cyclopropylmethoxy)phenyl]-i,2,3,4,4a,10b-hexahydrophenanthridine], 7.89.
The result for `COc1cc2c(cc1OC)C1CCCCC1N=C2c1ccc(C(=O)N2CCCCC2)cc1` (single isomer, unassigned; (-)) [Compound 16, (−)-cis-8,9-Dimethoxy-[4-(piperdin-1-ylcarbonyl)phenyl]-1,2,3,4,4a,10b-hexahydrophenanthridine] reads 8.02; that for `COc1cc2c(cc1OC)C1CCCCC1N=C2c1ccc(CN2CCN(C)CC2)cc1` (single isomer, unassigned; (-)) [Compound 22, (−)-cis-8,9-Dimethoxy-6-[4-(4-methylpiperazin-1-ylmethyl)phenyl]-1,2,3,4,4a,10b-hexphenanthridine], 7.27; that for `COc1cc2c(cc1OC)C1CCCCC1N=C2c1ccc(C(=O)c2ccncc2)cc1` (single isomer, unassigned; (-)) [Compound 32, (−)-cis-8,9-Dimethoxy-6-[4-(pyridyl-4-carbonyl)phenyl]-1,2,3,4,4a,10b-hexahydrophenanthridine], 7.45.
`CCOc1cc2c(cc1OC)C(c1ccc(OCC3CC3)c(OCC3CC3)c1)=NC1CCCCC21` (single isomer, unassigned; (-)) [Compound 40, (−)-cis-9-Ethoxy-8-methoxy-6-[3,4-bis(cyclopropylmethoxy)phenyl]-4,2,3,4,4a,10b-hexahydrophenanthridine]: the “−log IC50, inhibition” value is given as 8.65.
As for `COc1cc2c(cc1OC)C1CCCCC1N=C2c1ccc(OC)c(OC2CCC2)c1` (single isomer, unassigned; (-)) [Compound 44, (−)cis-8,9-Dimethoxy-6-[(3-cyclobutoxy-4-methoxy)phenyl]-1,2,3,4,4a,10b-hexahydrophenanthridine], the figure is 7.58.
Turning to `COc1cc2c(cc1OC)C1CCCCC1N=C2c1ccc(NC(C)=O)c(OCC2CC2)c1` (single isomer, unassigned; (-)) [Compound 45, (−)-cis-8,9-Dimethoxy-6-[(3-cyclopropylmethoxy-4-acetamido)phenyl]-1,2,3,4,4a,10b-hexahydrophenanthridine], the “−log IC50, inhibition” value is recorded as 8.04.
`COc1cc2c(cc1OC)C1CCCCC1N=C2c1ccc(OC)c(N2CCCC2)c1` (single isomer, unassigned; (-)) [Compound 46, (−)-cis-8,9-Dimethoxy-6-[(4-methoxy-3-pyrrolidin-1-yl)phenyl]-1,2,3,4,4a,10b-hexahydrophenanthridine]: the “−log IC50, inhibition” value amounted to 7.16.
As for `COc1cc2c(cc1OC)[C@@H]1CCCC[C@@H]1N=C2c1ccc(C(=O)c2ccccc2)cc1` [Compound 1, (−)-cis-8,9-Dimethoxy-6-(4-benzoylphenyl)-1,2,3,4,4a,10b-hexahydrophenanthridine], the figure is 7.82; as for `COc1cc2c(cc1OC)[C@@H]1CCCC[C@@H]1N=C2c1cccc(C(=O)c2ccccc2)c1` [Compound 3, (−)-cis-8,9-Dimethoxy-6-(3-benzoylphenyl)-1,2,3,4,4a,10b-hexahydrophenanthridine], 8.64; as for `COc1cc2c(cc1OC)[C@@H]1CCCC[C@@H]1N=C2c1cccc(Oc2ccccc2)c1` [Compound 5, (−)-cis-8,9-Dimethoxy-6-(3-phenoxyphenyl)-1,2,3,4,4a,10b-hexahydrophenanthridine], 8.54.
On to `COc1cc2c(cc1OC)[C@@H]1CCCC[C@@H]1N=C2c1cccc(OCCc2ccccc2)c1` [Compound 8, (−)-cis-8,9-Dimethoxy-6-(3-phenethyloxyphenyl)-1,2,3,4,4a,10b-hexahydrophenanthridine], for which the “−log IC50, inhibition” value came out at 8.41.
The result for `COc1cc2c(cc1OC)[C@@H]1CCCC[C@@H]1N=C2c1ccc(OC)c(OC2CCCC2)c1` [Compound 9, (−)-cis-6-(3-Cyclopentyloxy-4-methoxyphenyl)-8,9-dimethoxy-1,2,3,4,4a,10b-hexahydrophenanthridine] reads 7.79.
On to `COc1cc2c(cc1OC)[C@@H]1CCCC[C@@H]1N=C2c1ccc(OCc2ccccc2)c(OCC2CC2)c1` [Compound 10, (−)-cis-6-(4-Benzyloxy-3-cyclopropylmethoxyphenyl)-8,9-dimethoxy-1,2,3,4,4a,10b-hexahydrophenanthridine], for which the “−log IC50, inhibition” value is listed as 8.09.
As for `COc1cc2c(cc1OC)[C@@H]1CCCC[C@@H]1N=C2c1ccc(OC)c(OCc2ccccc2)c1` [Compound 11, (+)-cis-6-(3-Benzyloxy-4-methoxyphenyl)-8,9-dimethoxy-1,2,3,4,4a,10b-hexahydrophenanthridine], the figure is 8.03; as for `COc1cc2c(cc1OC)[C@@H]1CCCC[C@@H]1N=C2c1ccc(OC)c(OCC2CC2)c1` [Compound 12, (−)-cis-8,9-Dimethoxy-6-[3-cyclopropylmethoxy4-methoxyphenyl]-1,2,3,4,4a,10b-hexahydrophenanthridine], 7.80; as for `COc1cc2c(cc1OC)[C@@H]1CCCC[C@@H]1N=C2c1cccc(OS(C)(=O)=O)c1` [Compound 13, (−)-cis-8,9-Dimethoxy-6-(3-methanesulfonyloxyphenyl)-1,2,3,4,4a,10b-hexahydrophenanthridine], 8.33.
Regarding `COc1cc2c(cc1OC)[C@@H]1CCCC[C@@H]1N=C2c1cccc(OS(=O)(=O)c2ccc(C)cc2)c1` [Compound 14, (−)-cis-8,9-Dimethoxy-6-[3-(p-toluenesulfonyloxy)phenyl)-1,2,3,4,4a,10b-hexahydrophenanthridine], the “−log IC50, inhibition” value was found to be 8.44.
As for `COc1cc2c(cc1OC)[C@@H]1CCCC[C@@H]1N=C2c1ccc(CN2CCOCC2)cc1` [Compound 21, (−)-cis-8,9-Dimethoxy-6-[4-(morpholin-4-ylmethyl)phenyl]-1,2,3,4,4a,10b-hexahydrophenanthridine], the figure is 7.35.
As for `CCOc1cc2c(cc1OC)C(c1ccc(C(=O)c3ccccc3)cc1)=N[C@H]1CCCC[C@@H]21` [Compound 25, (−)-cis-9-Ethoxy-8-methoxy-6-(4-benzoylphenyl)-1,2,3,4,4a,10b-hexahydrophenanthridine], the figure is 8.87; as for `COc1ccc(C(=O)c2ccc(C3=N[C@H]4CCCC[C@H]4c4cc(OC)c(OC)cc43)cc2)cc1` [Compound 26, (−)-cis-8,9-Dimethoxy-6-[4-(4-methoxybenzoyl)phenyl]-1,2,3,4,4a,10b-hexahydrophenanthridine], 7.46.
The result for `COc1cc2c(cc1OC)[C@@H]1CCCC[C@@H]1N=C2c1ccc(C(=O)c2ccc([N+](=O)[O-])cc2)cc1` [Compound 29, (−)cis-8,9-Dimethoxy-6-[4-(4-nitrobenzoyl)phenyl]-1,2,3,4,4a,10b-hexahydrophenanthridine] reads 7.28.
Regarding `COc1cc2c(cc1OC)[C@@H]1CCCC[C@@H]1N=C2c1ccc(C(=O)c2ccc(C#N)cc2)cc1` [Compound 31, (−)-cis-8,9-Dimethoxy-6-[4-(4-cyanobenzoyl)phenyl]-1,2,3,4,4a,10b-hexahydrophenanthridine], the “−log IC50, inhibition” value is listed as 7.8.
The result for `COc1cc2c(cc1OC)[C@@H]1CCCC[C@@H]1N=C2c1cccc(S(=O)(=O)c2ccccc2)c1` [Compound 33, (−)-cis-8,9-Dimethoxy-6-[3-(phenylsulfonyl)phenyl]-1,2,3,4,4a,10b-hexahydrophenanthridine] reads 8.23.
The result for `COc1cc2c(cc1OC)[C@@H]1CCCC[C@@H]1N=C2c1ccc(S(=O)(=O)c2ccccc2)cc1` [Compound 34, (−)-cis-8,9-Dimethoxy-6-[4-(phenylsulfonyl)phenyl]-1,2,3,4,4a,10b-hexahydrophenanthridine] reads 7.89; that for `COc1ccc(Oc2cccc(C3=N[C@H]4CCCC[C@H]4c4cc(OC)c(OC)cc43)c2)cc1` [Compound 36, (−)-cis-8,9-Dimethoxy-6-[3-(4-methoxyphenoxy)phenyl]-1,2,3,4,4a,10b-hexahydrophenanthridine], 8.78; that for `COc1cc2c(cc1OC)[C@@H]1CCCC[C@@H]1N=C2c1cccc(Oc2ccncc2)c1` [Compound 37, (−)-cis-8,9-Dimethoxy-6-[3-(pyrid-4-yloxy)phenyl]-1,2,3,4,4a,10b-hexahydrophenanthridine], 7.92.
